Test results published in PubChem BioAssay (NCI).
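Protocol summary: plate cells (96-well), add compound at 5 concentrations, incubate 48 h, interpolate endpoints linearly. The concentration for full growth arrest is given as TGI.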

Key:
Assay in all cases: NCI tumour cell line growth inhibition, 48 h
786-0 renal = tested on: 786-0 renal
A549 NSCLC = tested on: A549 NSCLC
ACHN renal = tested on: ACHN renal
DU-145 prostate = tested on: DU-145 prostate
HCT-116 colon = tested on: HCT-116 colon
HL-60(TB) leukemia = tested on: HL-60(TB) leukemia
IGROV1 ovarian = tested on: IGROV1 ovarian
M14 melanoma = tested on: M14 melanoma
MCF7 breast = tested on: MCF7 breast
MDA-N = tested on: MDA-N
NCI-H226 lung = tested on: NCI-H226 lung
RXF 393 renal = tested on: RXF 393 renal
SF-295 CNS = tested on: SF-295 CNS
SK-OV-3 ovarian = tested on: SK-OV-3 ovarian
UACC-257 melanoma = tested on: UACC-257 melanoma
UO-31 renal = tested on: UO-31 renal
HS 578T breast = tested on: HS 578T breast
K-562 leukemia = tested on: K-562 leukemia

Compound | TGI (786-0 renal) [µM] | TGI (A549 NSCLC) [µM] | TGI (ACHN renal) [µM] | TGI (DU-145 prostate) [µM] | TGI (HCT-116 colon) [µM] | TGI (HL-60(TB) leukemia) [µM] | TGI (IGROV1 ovarian) [µM] | TGI (M14 melanoma) [µM] | TGI (MCF7 breast) [µM] | TGI (MDA-N) [µM] | TGI (NCI-H226 lung) [µM] | TGI (RXF 393 renal) [µM] | TGI (SF-295 CNS) [µM] | TGI (SK-OV-3 ovarian) [µM] | TGI (UACC-257 melanoma) [µM] | TGI (UO-31 renal) [µM] | TGI (HS 578T breast) [µM] | TGI (K-562 leukemia) [µM]
CSc1ccc2c(cc1=O)[C@@H](NC(C)=O)CCc1cc(O)c(O)c(O)c1-2 | 32.4 | 45 | 46.8 | > 100 | > 100 | > 100 | 32.4 | 36 | 19.8 | 61.1 | 33.4 | > 100 | 31.2 | > 100 | > 100 | 42.8 |  | 
CN(C)CCCNc1c(O)c2c(c(O)c1Cl)C(=O)C=CC2=O | 3.25 | 3.52 | > 10 | 3.27 | 5.1 |  | 3.45 | 2.9 | 3.22 | 6.38 | > 10 |  | 3.27 | > 10 | 3.71 | > 10 | 3.65 | > 10
C[C@]12CC[C@@H]3c4ccc(O)cc4CC[C@H]3[C@@H]1C/C(=C\c1ccc([N+](=O)[O-])cc1)C2=O | > 100 | > 100 | > 100 | > 100 | > 100 |  | > 100 | > 100 | > 100 | > 100 | > 100 | 50.4 | > 100 | > 100 | > 100 | > 100 |  | > 100
c1ccc(COc2ccc(CC3SCCCS3)cc2)cc1 |  | > 100 | > 100 | > 100 | > 100 | > 100 | > 100 | > 100 | > 100 | > 100 |  |  | > 100 |  | > 100 |  |  | > 100
CCCCCCCCC[C@@H]1C[C@@H]2CCC3C(C(=O)OC)=C(C)NC(=N1)N32 (some centres undefined) | 18.9 | 32.6 | 32.1 | 21.9 | 17.3 | 26.9 | 19.4 | 21.8 | 15.9 |  | 29.2 | 8.55 | 23.6 | 25 | 27 | 30.9 | 34.7 | 72.2
CC(C)=CCC[C@]1(C)CC[C@]2(C)C3CCC(=C(C)C)[C@@H](CCCO)[C@]3(C)CC[C@@]2(C)C1 (some centres undefined) | > 100 | > 100 | > 100 | > 100 | > 100 | 84.3 | 37.9 | > 100 | 67.5 | > 100 | > 100 |  | > 100 | > 100 | 77.1 | 34 | > 100 | 
C=CC1(C)CCC(C(C)C(=O)C(C=C(C)C)OC(C)=O)C12C(=O)Oc1ccccc1C2=O (centres undefined) | > 100 | > 100 | > 100 |  | > 100 | 64.6 | > 100 | > 100 |  |  | > 100 | > 100 | > 100 | > 100 | > 100 | > 100 |  | > 100
NC(N)=NCCCC(N=c1c2ccccc2n(O)c2ccccc12)C(=O)O (centres undefined) | > 100 | > 100 | > 100 |  | > 100 | 58.5 | > 100 | > 100 |  |  | > 100 |  | > 100 | > 100 |  | > 100 |  | > 100
